System: 276233-004-R-J1-PDC complex spheroid viability
Test: Anticancer human tumor 276233-004-R-J1-PDC patient-derived colon adenocarcinoma cell line growth inhibition [GQUAD]
Details: for IC50: curve of first compound; for viability, T/C: stronger effect = lower value
Description: DNA G-quadruplex Stabilizer Agents in Combinations in Complex Spheroids
A high-throughput screen of multi-cell type tumor spheroids was designed to identify active combinations of DNA G-quadruplex stabilizer agents and targeted small molecules. Complex spheroids include a stromal component modeled by human endothelial cells (HUVEC) and fibroblasts modeled by human mesenchymal stem cells (MSCs). The concentration ranges selected for each drug and investigational agent were based upon clinically achievable concentrations if the clinical Cmax of the agent was known.
Compounds. The drugs and investigational agents: pidnarulex (CX-5461; NSC782164), APTO-253 (NSC789042), BRACO-19 (NSC847499), peposertib (NSC802822), ceralasertib (NSC780249), elimusertib (NSC800525), camonsertib (NSC841442), AZD-1390 (NSC803789), olaparib (NSC753686), talazoparib (NSC767125), ART-558 (NSC835418), sotorasib (NSC818433), MRTX-1133 (NSC836407), SN-38 (NSC673596), topotecan (NSC609699), etoposide (NSC141540), doxorubicin (NSC123127), gemcitabine (NSC613327), 5-fluorouracil (NSC19893), paclitaxel (NSC125973), vemurafenib (NSC761431), panobinostat (NSC761190), R-306465 (JNJ-16241199; NSC773264), adavosertib (NSC754352), TP-3654 (NSC805149), carboplatin (NSC241240), KSQ-4279 (NSC840948), and staurosporine (NSC755774) were obtained from the National Cancer Institute (NCI) Developmental Therapeutics Program Chemical Repository (34). The FDA-approved anticancer drug set is available from the NCI Developmental Therapeutics Program. […] The stock solutions were prepared in dimethyl sulfoxide (DMSO, Sigma-Aldrich, St. Louis, MO, cat. D2650) at 800-fold the tested concentration and stored at -70 degrees C prior to their use. All drugs and investigational agents were tested over a range starting from a high concentration at or near the clinical Cmax and decreasing in half-log increments. If the clinical Cmax for an agent had not been determined, the highest concentration tested was 10 microM.
2.3 Cell Culture. All cells were maintained in an incubator at 37 degrees C and 5% CO2 with 95% humidity. The PDC lines were cultured according to standard operating procedures established by the NCI PDMR. All PDCs were thawed and cultured in Matrigel-coated flasks prepared with a working solution of 1X Ham's F-12 nutrient mix, without supplementation (Invitrogen, cat. 11765054), 100 U/mL penicillin-streptomycin (Invitrogen, cat. 15140122), and 2.5% Matrigel (Corning Inc., cat. 354248) for the first three passages. The 857933-349-R-J2-PDC line was cultured in 6C/Colon 1B media, which includes advanced DMEM/F-12 (Thermo Fisher Scientific, cat. 12634028), 10 mM HEPES (Thermo Fisher Scientific, cat. 15630080), 1X GlutaMAX supplement (Thermo Fisher Scientific, cat. 35050061), 0.1 mg/mL primocin (InvivoGen, cat. ant-pm-2), 10% defined fetal bovine serum, heat inactivated (HyClone Laboratories Inc., cat. SH30070.03HI), 50% L-WRN conditioned media (ATCC, cat. CRL-3276), 1.25 mM N-Acetyl-L-cysteine (Sigma-Aldrich, cat. A9165), 10 mM nicotinamide (Sigma-Aldrich, cat. N0636), 1X B-27 supplement (Thermo Fisher Scientific, cat. 17504044), 1X N-2 supplement (Thermo Fisher Scientific, cat. 17502048), 10 microM Y-27632 dihydrochloride (Tocris Bioscience, cat. 1254), and 50 ng/mL human EGF recombinant protein (Thermo Fisher Scientific, cat. PHG0311). The 485176-168-R4-J1-PDC line was cultured in Panc media, which includes all 6C/Colon 1B media components plus 100 ng/mL human FGF-10 (Thermo Fisher Scientific, cat. 100-26), 500 nM SB-431542 (Selleckchem, cat. S1067), and gastrin (Tocris, cat. 3006).
[…]

[1] = second compound 0.0316 µM, first compound 0.0316 µM
[2] = second compound 0.0316 µM, first compound 0.1 µM
[3] = second compound 0.0316 µM, first compound 0.316 µM
[4] = second compound 0.0316 µM, first compound 1 µM
[5] = second compound 0.0316 µM, first compound 3.16 µM
[6] = second compound 0.0316 µM, first compound 10 µM
[7] = second compound 0.1 µM, first compound 0.0316 µM
[8] = second compound 0.1 µM, first compound 0.1 µM
[9] = second compound 0.1 µM, first compound 0.316 µM
[10] = second compound 0.1 µM, first compound 1 µM
[11] = second compound 0.1 µM, first compound 3.16 µM
[12] = second compound 0.1 µM, first compound 10 µM
[13] = second compound 0.316 µM, first compound 0.0316 µM
[14] = second compound 0.316 µM, first compound 0.1 µM
[15] = second compound 0.316 µM, first compound 0.316 µM
[16] = second compound 0.316 µM, first compound 1 µM
[17] = second compound 0.316 µM, first compound 3.16 µM
[18] = second compound 0.316 µM, first compound 10 µM
[19] = second compound 1 µM, first compound 0.0316 µM
[20] = second compound 1 µM, first compound 0.1 µM
[21] = second compound 1 µM, first compound 0.316 µM
[22] = second compound 1 µM, first compound 1 µM
[23] = second compound 1 µM, first compound 3.16 µM
[24] = second compound 1 µM, first compound 10 µM
[25] = second compound 3.16 µM, first compound 0.0316 µM
[26] = second compound 3.16 µM, first compound 0.1 µM
[27] = second compound 3.16 µM, first compound 0.316 µM
[28] = second compound 3.16 µM, first compound 1 µM
[29] = second compound 3.16 µM, first compound 3.16 µM
[30] = second compound 3.16 µM, first compound 10 µM
[31] = second compound 10 µM, first compound 0.0316 µM
[32] = second compound 10 µM, first compound 0.1 µM
[33] = second compound 10 µM, first compound 0.316 µM
[34] = second compound 10 µM, first compound 1 µM
[35] = second compound 10 µM, first compound 3.16 µM
[36] = second compound 10 µM, first compound 10 µM
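Further: spheroids exposed to drugs for seven days.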
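Wherever viability, T/C is given: 100% = DMSO vehicle control viability.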

## CC(C)n1c(=O)n(C)c2cnc3cc(F)c(-c4ccc(OCCCN5CCCCC5)nc4)cc3c21 + CN(C)c1ccc(Nc2c3ccc(NC(=O)CCN4CCCC4)cc3nc3cc(NC(=O)CCN4CCCC4)ccc23)cc1
Second compound 0.0316 µM
  IC50: > 10 µM
Second compound 0.1 µM
  IC50: > 10 µM
Second compound 0.316 µM
  IC50: 8.48 µM
Second compound 1 µM
  IC50: > 10 µM
Second compound 3.16 µM
  IC50: > 10 µM
Second compound 10 µM
  IC50: < 0.0316 µM
[1]
  viability, T/C: 95.3%
[2]
  viability, T/C: 103%
[3]
  viability, T/C: 99.6%
[4]
  viability, T/C: 92.9%
[5]
  viability, T/C: 69.2%
[6]
  viability, T/C: 53.1%
[7]
  viability, T/C: 91.4%
[8]
  viability, T/C: 99.2%
[9]
  viability, T/C: 100%
[10]
  viability, T/C: 89.2%
[11]
  viability, T/C: 60.1%
[12]
  viability, T/C: 55.5%
[13]
  viability, T/C: 86.7%
[14]
  viability, T/C: 84.3%
[15]
  viability, T/C: 75.7%
[16]
  viability, T/C: 86.1%
[17]
  viability, T/C: 68.7%
[18]
  viability, T/C: 46.9%
[19]
  viability, T/C: 61.7%
[20]
  viability, T/C: 57.4%
[21]
  viability, T/C: 62.1%
[22]
  viability, T/C: 72.7%
[23]
  viability, T/C: 72.7%
[24]
  viability, T/C: 64.8%
[25]
  viability, T/C: 55.9%
[26]
  viability, T/C: 53.6%
[27]
  viability, T/C: 82.4%
[28]
  viability, T/C: 90.1%
[29]
  viability, T/C: 81.3%
[30]
  viability, T/C: 36.6%
[31]
  viability, T/C: 46.4%
[32]
  viability, T/C: 54%
[33]
  viability, T/C: 63.4%
[34]
  viability, T/C: 83.1%
[35]
  viability, T/C: 107%
[36]
  viability, T/C: 26.4%

## CC1COCCN1c1cc(-c2ccnn2C)c2ccnc(-c3ccn[nH]3)c2n1 (centres undefined) + CN(C)c1ccc(Nc2c3ccc(NC(=O)CCN4CCCC4)cc3nc3cc(NC(=O)CCN4CCCC4)ccc23)cc1
Second compound 0.0316 µM
  IC50: 7.14 µM
Second compound 0.1 µM
  IC50: 6.12 µM
Second compound 0.316 µM
  IC50: 0.513 µM
Second compound 1 µM
  IC50: 0.109 µM
Second compound 3.16 µM
  IC50: 0.145 µM
Second compound 10 µM
  IC50: < 0.0316 µM
[1]
  viability, T/C: 83.7%
[2]
  viability, T/C: 77.8%
[3]
  viability, T/C: 74.8%
[4]
  viability, T/C: 73.1%
[5]
  viability, T/C: 55%
[6]
  viability, T/C: 47.9%
[7]
  viability, T/C: 80.4%
[8]
  viability, T/C: 70%
[9]
  viability, T/C: 76.6%
[10]
  viability, T/C: 69.9%
[11]
  viability, T/C: 56.3%
[12]
  viability, T/C: 44.1%
[13]
  viability, T/C: 77.9%
[14]
  viability, T/C: 61.6%
[15]
  viability, T/C: 51.6%
[16]
  viability, T/C: 52.5%
[17]
  viability, T/C: 35.3%
[18]
  viability, T/C: 40.3%
[19]
  viability, T/C: 52.9%
[20]
  viability, T/C: 54.1%
[21]
  viability, T/C: 44.7%
[22]
  viability, T/C: 40.5%
[23]
  viability, T/C: 38.2%
[24]
  viability, T/C: 34.4%
[25]
  viability, T/C: 58.5%
[26]
  viability, T/C: 56%
[27]
  viability, T/C: 42.6%
[28]
  viability, T/C: 40.5%
[29]
  viability, T/C: 40.4%
[30]
  viability, T/C: 35.5%
[31]
  viability, T/C: 46.2%
[32]
  viability, T/C: 40.1%
[33]
  viability, T/C: 33.8%
[34]
  viability, T/C: 32.6%
[35]
  viability, T/C: 39.8%
[36]
  viability, T/C: 27.8%

Source: PubChem BioAssay AID2060496 (Molecular Pharmacology Branch, DTP, NCI, 2025)
